We go through one molecule from patent US20260224595A1, “COMPOUNDS FOR THE TREATMENT OF MYOTONIC DYSTROPHY” (ETH ZURICH, priority 2022, published 2026).

The assay concerns targetomes of let-7, miR-1, miR-9, miR-29, miR-30, miR-107 and miR-181. Nature of the assay: RNA-Seq of miRNA targetomes in DM myoblasts and myotubes. It counts as cell-based, human. The protocol: As described in Example 3, total RNA was isolated from DM-patient and healthy cells, and cDNA libraries were prepared for three conditions (healthy volunteer (HV); DM; DM+Compound II) for DM1 and DM2 backgrounds. The expression levels of predicted targetomes of miRNAs let-7, miR-1, miR-9, miR-29, miR-30, miR-107 and miR-181 were then compared, using miR-122 as well as more than 2,000 transcripts that are not predicted targets of any miRNA as negative controls. Three pair-wise comparisons were performed to measure: i) how a targetome varies between healthy and diseased cells (HV versus DM), ii) how a targetome responds to treatment with the inventive compounds (DM versus DM+Compound II) and, iii) how a Compound II-treated DM-targetome compares to that of a healthy signature. For each pair-wise comparison, the third dataset was used as a reference and the fold changes were calculated for each target transcript (e.g. DM1 vs. DM1+Compound II, with fold changes calculated relative to HV).
Primary myoblasts or myotubes derived from DM1 or DM2 patient samples and non-DM healthy control individuals were cultured for 90% confluence and then treated with 120 μM Compound II for 72 h. Myoblasts were harvested by trypsinization, and separately myotubes were isolated by a minimal trypsin treatment followed by gentle centrifugation to sediments to separate them from the remaining mono-nucleated cells. Cell pellets were washed with PBS and RNA isolation was performed with Trizol® by using the Dircet-zol™ RNA MiniPrep Plus Kit (ZYMO Research, Freiburg, Germany). Library preparation was performed using the TruSeq Stranded mRNA Kit (Illumina, San Diego, CA, USA) with the TruSeq RNA Single Index Set A (Illumina) according to the recommended procedure. Quality and size distribution of the generated libraries was validated using an Agilent 2100 bioanalyzer with high-sensitivity RNA chip (Agilent) and RNA yield was measured using the Qubit […] HS Assay Kit followed by pooling of the libraries in batches of 12 and sequencing of […] pooled library on an Nextseq 500/High Output Flow Cell Cartridge using a paired end, 2×76 reads, single index protocol.
RNA-Seq reads were mapped to the human genome (build GRCh38) using STAR (Dobin et al., (2013). STAR: ultrafast universal RNA-seq aligner. Bioinformatics 29, 15-21) with gene annotations from gencode (www.gencodegenes.org; version 40). Reads mapping uniquely to exons were counted for each gene using htseq-count (Anders et al., (2015). HTSeq—a Python framework to work with high-throughput sequencing data. Bioinformatics 31, 166-169) with the parameter -s reverse and -m intersection_strict. Expression levels were quantified as TPM (transcripts per million), by dividing read counts by the total exon length for each gene, and then normalising by the sum of all values in each sample and multiplying by one million. Fold changes were calculated between the average expression levels in three conditions: DMSO-treated healthy volunteer samples (HV), DMSO-treated DM patient samples (DM), and Compound II-treated DM patient samples (DM+Compound II). Genes with an average TPM>1 were considered in each of these three conditions. For myoblasts, three samples were included for all conditions. For myotubes, three samples were included for the HV, DM1 and DM2 conditions, but two Compound II-treated samples were excluded (one DM1 and one DM2) due to a very low read count (<500000 exonic reads), resulting in […] and two DM2+Compound II myotube samples being included in the analysis. Cumulative density functions of expression changes of miRNA target genes were plotted using custom python scripts.

In the case of `CC(=O)N(C)c1cccc(-c2ccc3nnc(C)n3n2)c1` [Compound II], the “shift of the targetomes of the miRNAs tested versus healthy volunteers” value (DM1 and DM2 cells, FIGS. 5B, 5D, 6B and 6D) is “levels comparable to those of healthy volunteers”. For the same molecule, the “median suppression of the targetomes of let-7 and miRs -9, -1, -29, -30, -107, -181” value (DM1 myoblasts, 120 μM, 72 h, RNA-Seq) is given as 10-12%. In addition, the “CDF curves of DM1+Compound II versus HV targetome signature for miR-1, miR-9, miR-29, miR-30 and miR-107” value (DM1 myoblasts, FIG. 5B) was “indistinguishable overlay”. Also, the “median suppression of the seven miRNA targetomes” value by setting is: (DM1 myotubes, 120 μM, 72 h, RNA-Seq) 12-15%; (DM2 myotubes, 120 μM, 72 h, RNA-Seq) 10-12%. Also, the “median suppression of the seven targetomes” value (DM2 myoblasts, 120 μM, 72 h, RNA-Seq) was 22-25%. For the setting “DM2 myoblasts, FIG. 5D”, the “targetome shift versus HV signature” value was “overshoot”.
